Columns and labels:
HIV-1-MDR = assay: Cellular anti-viral assay in MT4-LTR-EGFP cells, multi-drug resistant HIV-1 virus; type: cell-based; conditions: Human immunodeficiency virus 1, 72 h, read-out: Activity class for HIV-1-MDR test
Description: (§1) The compounds were tested in a cellular assay using the MT4-LTR-EGFP cells for anti-viral activity. […] The cellular assay was performed according to the following procedure.
(§2) HIV- or mock-infected MT4-LTR-EGFP cells were incubated for three days in the presence of various concentrations of the inhibitor. Upon infection, the GFP reporter is activated by the viral tat protein. At the end of the incubation period, the GFP signal was measured. In the virus control samples (in the absence of any inhibitor) the maximal fluorescent signal was obtained. The inhibitory activity of the compound was monitored on the virus-infected cells and was expressed as EC50 and EC90. These values represent the amount of the compound required to protect 50% and 90%, respectively, of the cells from virus infection. The toxicity of the compound was measured on the mock-infected cells and was expressed as CC50, which represents the concentration of compound required to inhibit the growth of the cells by 50%. The selectivity index (SI) (ratio CC50/EC50) is an indication of the selectivity of the anti-HIV activity of the inhibitor.

HIV-1 strain LAI = assay: Cellular anti-viral assay in MT4-LTR-EGFP cells, wild type HIV-1 strain LAI; type: cell-based; conditions: Human immunodeficiency virus 1, 72 h; MT4-LTR-EGFP cells, three days incubation, GFP signal; average EC50 used where more than one run; read-out: Activity class for HIV-1-LAI test
Description: as §1, §2

O=C(NC1CCCC1)c1ccc(C2=NN3C(C(=O)c4ccc(C(F)(F)F)cc4)Oc4ccccc4C3C2)cc1 (centres unmarked) [Compound 55]
EC50 (HIV-1-MDR): < 1 µM | EC50 (HIV-1 strain LAI): < 1 µM

From patent US7326703B2, “(1,10B-Dihydro-2-(aminocarbonyl-phenyl)-5H-pyrazolo[1,5-c][1,3]benzoxazin-5-yl)phenyl methanone derivatives as HIV viral replication inhibitors” (priority 2004, dated 2008)
